pIC50: −log10 of the molar value.
Tests used:
[1] = tested on: C4-2B and 22Rv1 cells; assay: Apoptosis (caspase-3/7 activity, TUNEL); format: cell-based, human
Description: For apoptosis, Terminal deoxynucleotidyl transferase-mediated dUTP nick end labeling (TUNEL) was performed by using in situ cell death detection kit (Roche) as previously described^56. The results are expressed as a percentage of apoptotic cell number/total cell number. Caspase-3/7 activity was measured using a luminescent caspase-Glo 3/7 assay kit (Promega Corporation, Madison, USA) following the manufacturer's instructions. For cell growth, cells were seeded in 6-well plates at 2×10^5 per well and treated as indicated. Total viable cell numbers were counted using a Coulter cell counter. For colony formation, 800 cells were seeded in a well of 6-well plates and cultured for 14 days with the medium changed every 3 days. When the cell clone grew visible, the medium was removed and the cells were fixed with […] formalin for 10 minutes. Then the plates were washed with PBS for two times and the cell colonies were stained with 0.2% crystal violet (in 10% formalin) for 15 minutes. The numbers of cell colonies were counted after washed 5 times by PBS. The above assays were performed in triplicates and the entire experiments were repeated three times.

[2] = tested on: TNBC cells including MDA-MB468, MDA-MB231, BT20, SUM149, and HCC1937; assay: CellTiter-GLO viability, triple-negative breast cancer cells; format: cell-based; details: Homo sapiens, 96 h, treated for 4 days
Description: For cell viability, cells were seeded in 96-well plates at 1500-2500 cells per well (optimum density for growth) in a total volume of 100 μl media. Serially diluted compounds in […] of media were added to the cells 12 hours later. After 4 days of incubation, Cell-Titer GLO reagents (Promega) were added and luminescence was measured on GLOMAX microplate luminometer (Promega), according to the manufacturer's instructions. All experimental points were set up as sextuplicate as biological replication and the entire experiments were repeated three times. The data are presented as percentage of viable cells with vehicle treated cells set as 100. The estimated in vitro IC50 values were calculated using GraphPad Prism 6 software.
Using a CellTiter-GLO assay, the viability of cells of different cancer types was measured after treatment with different concentrations of RORγ small molecule inhibitors for 4 days.

[3] = tested on: A549 human lung cancer cells xenograft tumors; assay: A549 lung cancer xenograft tumor growth; format: in vivo, mice; details: A549 xenografts, 5 mg/kg/day i.p., six weeks
Description: FIG. 32A: Cell viability, as measured by Cell-Titer GLO, of different lung cancer cells treated with the indicated concentrations of SR2211 for 4 days. FIG. 32B: Cell viability, as measured by Cell-Titer GLO, of different lung cancer cells treated with the indicated concentrations of GSK805 for 4 days. FIG. 32C: Half-maximal inhibitory concentration (IC50) for SR2211 and GSK805 in indicated lung cancer cell lines treated for 4 days. FIG. 32D: Effects of the indicated treatments (SR2211, 5 mg/kg i.p. five times per week; or vehicle) on the growth of lung cancer A549 xenografts (n=6 mice per group). Treatment started when A549 tumors reached approximately 100 mm^3. Mean tumor volume±s.e.m., Mean tumor weight±s.e.m. and representative tumor images are shown. P<0.01.

[4] = tested on: 22Rv1 xenografts; assay: 22Rv1 xenograft tumor growth; format: in vivo, mice; details: nude mice; SR2211 5 mg/kg i.p., 8k/E11 10 and 20 mg/kg i.p., five times per week (FIG. 3A)
Description: Four-week-old male SCID C.B17 mice (for C4-2B and VCaP) or BALB/c nu/nu athymic mice (for 22Rv11 and PC-3) were purchased from Harlan Inc. For establishing tumors, 2×10^6 cells were suspended in total of 100 μL PBS/Matrigel (1:1) and implanted subcutaneously into the dorsal flank on both sides of the mice. Animal group size of six or more was estimated to have a high statistic power, based on power calculation (http://www.biomath.info/power/) and previous studies involving the same xenograft models^34,68. When the tumor volume was approximately 80 mm^3, the mice were randomized and then treated intraperitoneally (i.p.) with 100 μl of either vehicle or RORγ antagonists SR2211, XY011/8k (in a formulation of 15% Cremophor EL, Calbiochem, 82.5% PBS, and 2.5% DMSO) for five times per week. Tumor growth was monitored by calipers with volume calculated using the equation: (π/6 (length×width2)). Body weight during the course of the study was also monitored. At the end of the studies mice were killed and tumors were dissected and weighed. Additionally, prostate, seminal vesicle, testis, kidney, heart, lung, liver, epididymal fat pad and spleen were harvested and weighed. To assess the effect of combining RORγ antagonists and ENZ on the growth of castrated-resistant VCaP xenografts (CRPC-VCaP), first, SCID C.B17 mice were injected with VCaP cells as above to establish the tumors. Then, mice bearing tumors of approximately 180 mm^3 were surgically castrated. They were then observed for tumor regression. Once tumors grew back to the pre-castration size, mice were randomized and treated with vehicle, 5 mg kg^−1 SR2211, 10 mg […] ENZ or a combination of 5 mg kg^−1 SR2211 and 10 mg kg^−1 ENZ. ENZ was given by oral gavage as previously described^68 and SR2211 was administered i.p as above. Mice were excluded from the study if bearing no tumor or tumor with size twice larger or smaller than the mean, at the time of randomization.

[5] = tested on: AR; assay: Anti-AR ChIP-seq; format: cell-based, human; details: C4-2B cells, 5 μM, 24 hours
Description: C4-2B cells were treated with vehicle or SR2211 (5 μM) for 24 hours before harvested for ChIP-seq. ChIP-seq experiments were performed as described^65. Anti-AR ChIP-seq was repeated in two independent experiments. Antibodies used were against AR (Santa Cruz; sc-815); RNA Pol II (Santa cruz; sc-899); H3K4me2 (Abcam ab32356); H3K4me3 (Abcam; ab8580); H3 (acetyl K27) (Abcam; ab4729). Libraries were quantified with the Bioanalyzer 2100 (Agilent) and sequenced on the Illumina HiSeq 2000 Sequencer (BGI, Hong Kong). Sequencing tags were mapped against the Homo sapiens (Human) reference genome (hg19) using Bowtie 2^66. Uniquely mapped tags were used for peak calling by MACS(2.1.0)^67 to identify regions of ChIP-Seq enrichment over background. A q value threshold of enrichment of 5×10^−2 was used for all data sets. Normalized genome-wide signal coverage tracks from raw read alignment files were built by MACS2, UCSC tools (http://hgdownload.cse.ucsc.edu/admin/exe/linux.x86_64/bedGraphToBigWig/bedClip) and bedTools (http://code.google.com/p/bedtools/). Visualization of ChIP-seq signal at enriched genomic regions (avgprof and heatmap) was achieved by using ngs.plot (https://github.com/shenlab-sinai/ngsplot). ChIP-seq data have been deposited to NCBI-GEO with accession code GSE72714.

OC(c1ccc(-c2ccc(CN3CCN(Cc4ccncc4)CC3)cc2)c(F)c1)(C(F)(F)F)C(F)(F)F [SR2211, 2-Fluoro-4′-[[4-(4-pyridinylmethyl)-1-piperazinyl]methyl]-a,a-bis (trifluoromethyl)-[1,1′-biphenyl]-4-methanol]
apoptosis [1]: marked apoptosis | pIC50 [2]: 5.00 to 6.00 | tumor growth of xenograft lung tumor model [3]: strongly inhibited tumor growth | growth of xenograft tumors [4]: strongly inhibited growth of xenograft tumors | genome-wide AR binding to its target loci [5]: dramatic inhibition of genome-wide AR binding
